What was measured:
[1] = Dissolution profile of 500 mg azithromycin tablets; type: physicochemical; conditions: total weight one gram, solvents and procedure similar to capsules in U.S. Pharmacopoeia 2000, page 186
Description: In order to test the performance of anhydrous crystalline azithromycin in producing pharmaceutical preparations, 500 mg azithromycin tablets were made with total weight of one gram. The dissolution profile of these tablets was determined, and compared with the dissolution profile of tablets made with the same preparation using dihydrated azithromycin. The used solvents, and the procedure followed, were similar to those indicated for capsules in U.S. Pharmacopoeia 2000, page 186. […] This property gives the anhydrous crystalline form reported herein significant practical advantages over the dihydrated forms, given that increased solubility of the pharmaceutical preparation generally implies greater bioavailabilty of the drug and in consequence increases its therapeutic effectiveness.

[2] = Moisture uptake on exposure to room conditions; type: physicochemical; conditions: exposed to room conditions, relative humidity average of 45%, ten days
Excerpt: In addition to its novel features, the physical form obtained has physical characteristics that make it useful in preparing pharmaceutical preparations, with significant advantages over the forms existing to date. […] In contrast, the anhydrous crystalline form obtained here, when exposed to room conditions, at an relative humidity average of 45%, for ten days, increases its moisture content by only 0.55%, while a reference sample of dihydrated azithromycin increased its moisture content by 1% in the same time.

[3] = as indicated by patent PCT/US87/0612; cited from earlier work

| SMILES | dissolution values of tablets compared with tablets made with dihydrated azithromycin [1] | increase of moisture content [2] [%] | hygroscopicity [3] |
| --- | --- | --- | --- |
| CCC1OC(=O)C(C)C(OC2CC(C)(OC)C(O)C(C)O2)C(C)C(OC2OC(C)CC(N(C)C)C2O)C(C)(O)CC(C)CN(C)C(C)C(O)C1(C)O (stereo not shown) [anhydrous crystalline form, 9-deoxo-9a-methyl-9a-aza-9a-homoerythromycin A] | significantly higher | 0.55 | – |
| CCC1OC(=O)C(C)C(OC2CC(C)(OC)C(O)C(C)O2)C(C)C(OC2OC(C)CC(N(C)C)C2O)C(C)(O)CC(C)CN(C)C(C)C(O)C1(C)O (stereo not shown) [dihydrated azithromycin, 9-deoxo-9a-methyl-9a-aza-9a-homoerythromycin A] | – | 1 | – |
| CCC1OC(=O)C(C)C(OC2CC(C)(OC)C(O)C(C)O2)C(C)C(OC2OC(C)CC(N(C)C)C2O)C(C)(O)CC(C)CN(C)C(C)C(O)C1(C)O (stereo not shown) [forms reported by Kobrehel et al., 9-deoxo-9a-methyl-9a-aza-9a-homoerythromycin A] | – | – | highly hygroscopes |
